The values below come from patent US12612409B2, “Pyrrolopyrimidines as CFTR potentiators” (Cystic Fibrosis Foundation, priority 2016, dated 2026).

The target in assay [1] is T1, CFTR in F508del/F508del primary CF hBE cells (Homo sapiens, UniProt P13569, DEL508-508).
T1 construct: Primary cystic fibrosis human bronchial epithelial (CF hBE) cells were expanded and cultured; endogenous in cells; host or cells: primary CF human bronchial epithelial cells, genotype F508del/F508del
Put plainly: Ussing chamber electrophysiology assay of CFTR potentiation in F508del/F508del CF bronchial epithelial cells (27° C.). Format: cell-based. Summed up:
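Well-differentiated primary CF hBE cells (>30 days air/liquid interface) in Ussing chambers, HEPES saline both sides, voltage clamped to zero. Amiloride 30 uM, forskolin 10 uM, four rising compound concentrations, then CFTRinh-172 20 uM added at 20-25 min intervals. Short-circuit current scaled to DMSO (0%) and a positive control potentiator maximum (100%).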

Assay [2] has as its target T2, recombinant F508del V470 CFTR in Fischer rat thyroid (FRT) cells (Homo sapiens, UniProt P13569, DEL508-508).
T2 construct: expressed in transfected cells
Put plainly: FRT ion flux assay of F508del CFTR potentiation. In kind it is cell-based. The settings on record: FRT cells expressing F508del V470 CFTR, forskolin 20 uM, 27° C. pre-incubation. Summed up:
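FRT cells co-expressing F508del V470 CFTR and halide-sensitive YFP, temperature-corrected at 27° C for 16-24 h, then treated 30 min with compound plus 20 uM forskolin. Iodide addition quenches YFP, read after ~21 s; ratio scaled to DMSO (0%) and positive control potentiator (100%).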

Each structure is given as a SMILES string.

T1 sequence (P13569 with tags, fused parts or gaps DEL508-508): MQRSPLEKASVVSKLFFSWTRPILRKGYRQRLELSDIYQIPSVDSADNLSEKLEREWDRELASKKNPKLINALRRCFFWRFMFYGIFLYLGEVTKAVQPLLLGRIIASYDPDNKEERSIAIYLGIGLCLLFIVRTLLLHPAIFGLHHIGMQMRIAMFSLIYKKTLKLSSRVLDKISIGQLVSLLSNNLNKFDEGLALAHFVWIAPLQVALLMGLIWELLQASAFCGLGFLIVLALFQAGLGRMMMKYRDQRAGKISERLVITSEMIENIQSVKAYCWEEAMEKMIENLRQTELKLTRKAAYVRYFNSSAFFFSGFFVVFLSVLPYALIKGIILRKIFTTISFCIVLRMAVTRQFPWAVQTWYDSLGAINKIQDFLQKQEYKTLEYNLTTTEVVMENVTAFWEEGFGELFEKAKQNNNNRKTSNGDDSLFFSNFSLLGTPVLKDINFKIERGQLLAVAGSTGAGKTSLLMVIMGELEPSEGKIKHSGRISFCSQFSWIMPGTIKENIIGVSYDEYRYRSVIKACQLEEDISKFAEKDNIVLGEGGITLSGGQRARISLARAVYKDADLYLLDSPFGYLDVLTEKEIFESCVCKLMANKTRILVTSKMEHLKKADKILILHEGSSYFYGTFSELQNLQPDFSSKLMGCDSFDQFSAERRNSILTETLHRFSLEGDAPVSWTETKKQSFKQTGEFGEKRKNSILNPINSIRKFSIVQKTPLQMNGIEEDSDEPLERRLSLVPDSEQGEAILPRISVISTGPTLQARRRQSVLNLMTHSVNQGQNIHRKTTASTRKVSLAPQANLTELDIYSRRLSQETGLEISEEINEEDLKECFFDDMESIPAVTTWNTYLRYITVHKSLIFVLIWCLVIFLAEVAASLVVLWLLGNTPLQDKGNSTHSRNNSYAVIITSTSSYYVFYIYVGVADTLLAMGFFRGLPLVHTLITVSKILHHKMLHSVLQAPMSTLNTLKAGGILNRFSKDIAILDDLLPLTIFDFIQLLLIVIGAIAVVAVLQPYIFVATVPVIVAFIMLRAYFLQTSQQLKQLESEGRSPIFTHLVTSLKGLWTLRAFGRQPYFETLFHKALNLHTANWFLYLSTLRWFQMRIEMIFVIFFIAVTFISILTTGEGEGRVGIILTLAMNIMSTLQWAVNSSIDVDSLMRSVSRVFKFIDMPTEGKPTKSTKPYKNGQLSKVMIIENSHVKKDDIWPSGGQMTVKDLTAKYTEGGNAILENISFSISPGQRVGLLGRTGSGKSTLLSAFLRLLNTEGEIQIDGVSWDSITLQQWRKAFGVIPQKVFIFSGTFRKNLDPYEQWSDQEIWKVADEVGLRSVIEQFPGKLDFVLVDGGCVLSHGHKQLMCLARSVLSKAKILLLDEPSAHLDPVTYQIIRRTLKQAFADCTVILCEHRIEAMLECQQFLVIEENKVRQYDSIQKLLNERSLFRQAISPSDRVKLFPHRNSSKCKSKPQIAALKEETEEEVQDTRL
T2 sequence (P13569 with tags, fused parts or gaps DEL508-508): as above

By EC50 is commonly meant the concentration needed to bring the measured effect to its halfway point. As for `CCC(c1cn(-c2cc(F)ccc2F)nn1)n1cc(-c2cc(F)cnc2OC)c2c(N)ncnc21` (single isomer, unassigned; enantiomer 1) [Example 171, 7-{1-[1-(2,5-Difluorophenyl)-1H-1,2,3-triazol-4-yl]propyl}-5-(5-fluoro-2-methoxypyridin-3-yl)-7H-pyrrolo[2,3-d]pyrimidin-4-amine, enantiomer 1], the figures for the EC50 in assay [1] and in assay [2] were 3.87 nM and 11.7 nM, respectively.
For `CCC(c1cn(-c2ccccc2F)nn1)n1cc(C2CC2)c2c(N)ncnc21` (single isomer, unassigned; enantiomer 1) [Example 173, (−) 5-Cyclopropyl-7-{1-[1-(2-fluorophenyl)-1H-1,2,3-triazol-4-yl]propyl}-7H-pyrrolo[2,3-d]pyrimidin-4-amine, enantiomer 1], the 50% effective concentration (EC50) in assay [1] is 26.7 nM; in assay [2] it was 29.3 nM.
Turning to `COc1ncncc1-c1cn(C(c2cn(-c3ccccc3F)nn2)C2CC2)c2ncnc(N)c12` (single isomer, unassigned; enantiomer 1) [Example 174, (+) 7-{Cyclopropyl[1-(2-fluorophenyl)-1H-1,2,3-triazol-4-yl]methyl}-5-(4-methoxypyrimidin-5-yl)-7H-pyrrolo[2,3-d]pyrimidin-4-amine, enantiomer 1], the 50% effective concentration (EC50) in assay [1] came out at 31.5 nM; in assay [2] it was 19.6 nM.
Regarding `CCC(c1cnn(-c2ccccc2F)c1)n1cc(-c2cnc(C(F)(F)F)nc2)c2c(N)ncnc21` (single isomer, unassigned; enantiomer 1) [Example 175, 7-{(1-[1-(2-Fluorophenyl)-1H-pyrazol-4-yl]propyl}-5-[2-(trifluoromethyl)pyrimidin-5-yl]-7H-pyrrolo[2,3-d]pyrimidin-4-amine, enantiomer 1], the 50% effective concentration (EC50) in assay [1] came to 8 nM; in assay [2] it was 9.89 nM.
Take `CCC(c1c[nH]c(-c2ccc(F)cc2F)n1)n1cc(-c2cnc(C(F)(F)F)nc2)c2c(N)ncnc21` (single isomer, unassigned; enantiomer 1) [Example 177, 7-{1-[2-(2,4-Difluorophenyl)-2H-imidazol-4-yl]propyl}-5-[2-(trifluoromethyl)pyrimidin-5-yl]-7H-pyrrolo[2,3-d]pyrimidin-4-amine, enantiomer 1]: the EC50 in assay [1] stood at 18.9 nM; in assay [2] it was 21.6 nM.
For the compound `Cc1c(C(C)n2cc(-c3cnc(C(F)(F)F)nc3)c3c(N)ncnc32)nnn1-c1ccccc1F` (single isomer, unassigned; enantiomer 1) [Example 179, 7-{1-[1-(2-Fluorophenyl)-5-methyl-1H-1,2,3-triazol-4-yl]ethyl}-5-[2-(trifluoromethyl)pyrimidin-5-yl]-7H-pyrrolo[2,3-d]pyrimidin-4-amine, enantiomer 1], the half-maximal effective concentration (EC50) in assay [1] stood at 23.1 nM; in assay [2], 9.97 nM.
For `CC(c1cc(-c2ccccc2F)no1)n1cc(-c2ccc(Cl)cc2)c2c(N)ncnc21` (single isomer, unassigned; enantiomer 1) [Example 181, (+)-5-(4-Chlorophenyl)-7-{1-[3-(2-fluorophenyl)-1,2-oxazol-5-yl]ethyl}-7H-pyrrolo[2,3-d]pyrimidin-4-amine, enantiomer 1], the EC50 in assay [1] turned out to be 24.5 nM; in assay [2], 538 nM.
`CC(c1cn(-c2ccccc2F)nn1)n1cc(C2CCC2)c2c(N)ncnc21` (single isomer, unassigned; enantiomer 1) [Example 294, 5-Cyclobutyl-7-{1-[1-(2-fluorophenyl)-1H-1,2,3-triazol-4-yl]ethyl}-7H-pyrrolo[2,3-d]pyrimidin-4-amine, enantiomer 1]: the EC50 in assay [1] was found to be 189 nM; in assay [2] it was 167 nM.
The like results for `CCC(c1cn(-c2cccc(F)c2F)nn1)n1cc(-c2cncnc2OC)c2c(N)ncnc21` (single isomer, unassigned; enantiomer 1) [Example 305, (−) 7-{1-[1-(2,3-Difluorophenyl)-1H-1,2,3-triazol-4-yl]propyl}-5-(4-methoxypyrimidin-5-yl)-7H-pyrrolo[2,3-d]pyrimidin-4-amine, enantiomer 1] were, in that order, 372 nM and 545 nM.
As to `CCC(c1cn(-c2cc(F)ccc2F)nn1)n1cc(-c2cncnc2OC)c2c(N)ncnc21` (single isomer, unassigned; enantiomer 1) [Example 307, (+) 7-{1-[1-(2,5-Difluorophenyl)-1H-1,2,3-triazol-4-yl]propyl}-5-(4-methoxypyrimidin-5-yl)-7H-pyrrolo[2,3-d]pyrimidin-4-amine, enantiomer 1], the concentration for a half-maximal effect (EC50) in assay [1] is 55.4 nM; in assay [2], 45.8 nM.
`CCC(c1cn(-c2ccc(OC)nc2)nn1)n1cc(-c2cnc(C(F)(F)F)nc2)c2c(N)ncnc21` (single isomer, unassigned; enantiomer 1) [Example 309, 7-{1-[1-(6-Methoxypyridin-3-yl)-1H-1,2,3-triazol-4-yl]propyl}-5-[2-(trifluoromethyl)pyrimidin-5-yl]-7H-pyrrolo[2,3-d]pyrimidin-4-amine, enantiomer 1]: the concentration giving a half-maximal response (EC50) in assay [1] and in assay [2] was 69 nM in each case.
Turning to `CCC(c1cn(-c2cc(F)cc(F)c2)nn1)n1cc(-c2cnc(C(F)(F)F)nc2)c2c(N)ncnc21` (single isomer, unassigned; enantiomer 1) [Example 311, 7-{1-[1-(3,5-Difluorophenyl)-1H-1,2,3-triazol-4-yl]propyl}-5-[2-(trifluoromethyl)pyrimidin-5-yl]-7H-pyrrolo[2,3-d]pyrimidin-4-amine, enantiomer 1], the EC50 in assay [1] turned out to be 111 nM; in assay [2] it was 250 nM.
Regarding `CC(c1cn(-c2ccc(F)cc2F)nn1)n1c(C#N)c(-c2ccc(OC3CC3)nc2)c2c(N)ncnc21` (single isomer, unassigned; enantiomer 1) [Example 320, 4-Amino-5-[6-(cyclopropyloxy)pyridin-3-yl]-7-{1-[1-(2,4-difluorophenyl)-1H-1,2,3-triazol-4-yl]ethyl}-7H-pyrrolo[2,3-d]pyrimidine-6-carbonitrile, enantiomer 1], the half-maximal effective concentration (EC50) in assay [1] was determined as 46.2 nM; in assay [2], 120 nM.
For the compound `CCC(c1cn(-c2ccc(F)c(F)c2)nn1)n1c(C#N)c(-c2cnc(C(F)(F)F)nc2)c2c(N)ncnc21` (single isomer, unassigned; enantiomer 1) [Example 322, 4-Amino-7-{1-[1-(3,4-difluorophenyl)-1H-1,2,3-triazol-4-yl]propyl}-5-[2-(trifluoromethyl)pyrimidin-5-yl]-7H-pyrrolo[2,3-d]pyrimidine-6-carbonitrile, enantiomer 1], the 50% effective concentration (EC50) in assay [1] worked out at 33.8 nM; in assay [2], 49.9 nM.
As for `COc1ncccc1-c1cn(C(C)c2cn(-c3ccccc3F)nn2)c2ncnc(N)c12` (single isomer, unassigned; enantiomer 2) [Example 114, (+) 7-{1-[1-(2-Fluorophenyl)-1H-1,2,3-triazol-4-yl]ethyl}-5-(2-methoxypyridin-3-yl)-7H-pyrrolo[2,3-d]pyrimidin-4-amine, enantiomer 2], the concentration for a half-maximal effect (EC50) in assay [1] came to 75.8 nM; in assay [2], 36.2 nM.
For `CC(c1cn(-c2ccccc2F)nn1)n1cc(-c2ccc(C#N)c(F)c2)c2c(N)ncnc21` (single isomer, unassigned; enantiomer 2) [Example 116, 4-(4-Amino-7-{1-[1-(2-fluorophenyl)-1H-1,2,3-triazol-4-yl]ethyl}-7H-pyrrolo[2,3-d]pyrimidin-5-yl)-2-fluorobenzonitrile, enantiomer 2], the EC50 in assay [1] worked out at 26 nM; in assay [2], 36 nM.
Regarding `CC(c1cn(-c2ccccc2F)nn1)n1cc(-c2ccc(OC3CC3)cc2)c2c(N)ncnc21` (single isomer, unassigned; enantiomer 2) [Example 118, (−) 5-[4-(Cyclopropyloxy)phenyl]-7-{1-[1-(2-fluorophenyl)-1H-1,2,3-triazol-4-yl]ethyl}-7H-pyrrolo[2,3-d]pyrimidin-4-amine, enantiomer 2], the 50% effective concentration (EC50) in assay [1] was determined as 162 nM; in assay [2], 378 nM.
On to `CC(c1cn(-c2ccccc2F)nn1)n1cc(-c2ccc(OC3CC3)nc2)c2c(N)ncnc21` (single isomer, unassigned; enantiomer 2) [Example 120, (+) 5-[6-(Cyclopropyloxy)pyridin-3-yl]-7-{1-[1-(2-fluorophenyl)-1H-1,2,3-triazol-4-yl]ethyl}-7H-pyrrolo[2,3-d]pyrimidin-4-amine, enantiomer 2], for which the EC50 in assay [1] is 5.48 nM; in assay [2], 33.4 nM.
In the case of `CCC(c1cn(-c2ccccc2)nn1)n1cc(-c2ccc(OC)nc2)c2c(N)ncnc21` (single isomer, unassigned; enantiomer 2) [Example 126, 5-(6-Methoxypyridin-3-yl)-7-[1-(1-phenyl-1H-1,2,3-triazol-4-yl)propyl]-7H-pyrrolo[2,3-d]pyrimidin-4-amine, enantiomer 2], the results for the EC50 in assay [1] and in assay [2] were 12 nM and 21.6 nM, respectively.
The like results for `CCC(c1cn(-c2ccccc2)nn1)n1cc(-c2cncnc2OC)c2c(N)ncnc21` (single isomer, unassigned; enantiomer 2) [Example 128, (+) 5-(4-Methoxypyrimidin-5-yl)-7-[1-(1-phenyl-1H-1,2,3-tnazol-4-yl)propyl]-7H-pyrrolo[2,3-d]pyrimidin-4-amine, enantiomer 2] were, in that order, 42.6 nM and 19.1 nM.
